Several values for one entry are separate records, joined by “and”; a condition that tells them apart may be missing. Equal values may be shown once. Toxic doses and inconclusive results are not listed.
Test system: BDF1 mice, P388/VCR leukemia ip, median survival T/C
Assay: NCI In Vivo Anticancer Drug Screen. Data for tumor model P388 Leukemia resistant to Vincristine; NSC 67574 (intraperitoneal) in B6D2F1 (BDF1) mice
Conditions: endpoint: median survival time, higher = longer survival
Experimental: The antitumor activity of compounds was measured in mice bearing transplantable tumors. Survival or tumor size were measured and the results are expressed as the measurement made in the treated group (T) divided by the measurement made in the vehicle treated control group (C). The tumor model used in this assay is P388 Leukemia resistant to Vincristine; NSC 67574 (intraperitoneal) in B6D2F1 (BDF1) mice

[1] = dose: 25.0 mg/kg/injection, schedule: Q01DX010 (ip), vehicle: saline
[2] = dose: 18.0 mg/kg/injection, schedule: Q01DX010 (ip), vehicle: saline
[3] = dose: 27.0 mg/kg/injection, schedule: Q01DX010 (ip), vehicle: saline
[4] = dose: 40.0 mg/kg/injection, schedule: Q01DX010 (ip), vehicle: saline
[5] = dose: 1.5 mg/kg/injection, schedule: Q01DX010 (ip), vehicle: saline
[6] = dose: 3.0 mg/kg/injection, schedule: Q01DX010 (ip), vehicle: saline
[7] = dose: 6.0 mg/kg/injection, schedule: Q01DX010 (ip), vehicle: saline
[8] = dose: 12.0 mg/kg/injection, schedule: Q01DX010 (ip), vehicle: saline
[9] = dose: 5.0 mg/kg/injection, schedule: Q01DX010 (ip), vehicle: saline
[10] = dose: 20.0 mg/kg/injection, schedule: Q01DX010 (ip), vehicle: saline
[11] = dose: 12.5 mg/kg/injection, schedule: Q01DX010 (sc), vehicle: steriod suspending solution
[12] = dose: 25.0 mg/kg/injection, schedule: Q01DX010 (sc), vehicle: steriod suspending solution
[13] = dose: 50.0 mg/kg/injection, schedule: Q01DX010 (sc), vehicle: steriod suspending solution
[14] = dose: 100.0 mg/kg/injection, schedule: Q01DX010 (sc), vehicle: steriod suspending solution
[15] = dose: 8.0 mg/kg/injection, schedule: Q01DX010 (ip), vehicle: saline

CS(=O)(=O)OCCCCOS(C)(=O)=O
T/C (dose: 6.25 mg/kg/injection, schedule: Q01DX010 (ip), vehicle: saline): 88 % of control and 96 % of control
T/C [1]: 92 % of control
T/C (dose: 50.0 mg/kg/injection, schedule: Q01DX010 (ip), vehicle: saline): 96 % of control

CC[C@](O)(C(=O)O)c1cc2n(c(=O)c1CO)Cc1cc3ccccc3nc1-2
T/C (dose: 14.4 mg/kg/injection, schedule: Q04DX003 (ip), vehicle: saline): 155 % of control
T/C (dose: 24.0 mg/kg/injection, schedule: Q04DX003 (ip), vehicle: saline): 180 % of control
T/C (dose: 40.0 mg/kg/injection, schedule: Q04DX003 (ip), vehicle: saline): 102 % of control
T/C (dose: 66.7 mg/kg/injection, schedule: Q04DX003 (ip), vehicle: saline): 161 % of control

CO[C@H]1Nc2c(ccc(C)c2O)C(=O)N2C=C(/C=C/C(N)=O)C[C@@H]12
T/C (dose: 151.0 micrograms/kg/injection, schedule: Q04DX003 (ip), vehicle: saline + alcohol): 113 % of control
T/C (dose: 360.0 micrograms/kg/injection, schedule: Q04DX003 (ip), vehicle: saline + alcohol): 122 % of control

O=C(Nc1ccc(C2=NCCN2)cc1)c1ccc(NC(=O)c2ccc(C3=NCCN3)cc2)cc1
T/C [2]: 104 % of control
T/C [3]: 108 % of control
T/C [4]: 113 % of control
T/C (dose: 60.0 mg/kg/injection, schedule: Q01DX010 (ip), vehicle: saline): 113 % of control

O=P1(N(CCCl)CCCl)NCCCO1 (stereo unspecified)
T/C (dose: 144.0 mg/kg/injection, schedule: Q01DX001 (ip), vehicle: saline): 181 % of control
T/C (dose: 240.0 mg/kg/injection, schedule: Q01DX001 (ip), vehicle: saline): 194 % of control

Nc1ncnc2[nH]ncc12
T/C [5]: 88 % of control
T/C [6]: 88 % of control
T/C [7]: 88 % of control and 103 % of control
T/C [8]: 119 % of control

COS(C)(=O)=O
T/C (dose: 12.5 mg/kg/injection, schedule: Q01DX010 (ip), vehicle: saline): 123 % of control
T/C [1]: 103 % of control

O=C(Nc1ccc(C(=O)Nc2ccc(C3=NCCCN3)cc2)cc1)Nc1ccc(C2=NCCCN2)cc1
T/C (dose: 1.88 mg/kg/injection, schedule: Q01DX010 (ip), vehicle: saline): 116 % of control and 123 % of control
T/C (dose: 3.75 mg/kg/injection, schedule: Q01DX010 (ip), vehicle: saline): 116 % of control and 123 % of control
T/C (dose: 15.0 mg/kg/injection, schedule: Q01DX010 (ip), vehicle: saline): 123 % of control

N#[N+]c1cnc([O-])[nH]c1=O
T/C [9]: 156 % of control

O=c1[nH]c(=O)n(C2CC(O)C(CO)O2)cc1F (stereo unspecified)
T/C [10]: 112 % of control
T/C [4]: 154 % of control

CN(Cc1cnc2nc(N)nc(N)c2n1)c1ccc(C(=O)N[C@@H](CCC(=O)O)C(=O)O)cc1
T/C (dose: 8.64 mg/kg/injection, schedule: Q04DX003 (ip), vehicle: sodium bicarbonate): 167 % of control
T/C (dose: 14.4 mg/kg/injection, schedule: Q04DX003 (ip), vehicle: sodium bicarbonate): 188 % of control
T/C (dose: 24.0 mg/kg/injection, schedule: Q04DX003 (ip), vehicle: sodium bicarbonate): 214 % of control

CCCSc1ncnc2nc[nH]c12
T/C (dose: 31.3 mg/kg/injection, schedule: Q01DX010 (ip), vehicle: saline): 95 % of control
T/C (dose: 62.5 mg/kg/injection, schedule: Q01DX010 (ip), vehicle: saline): 95 % of control
T/C (dose: 125.0 mg/kg/injection, schedule: Q01DX010 (ip), vehicle: saline): 88 % of control and 95 % of control
T/C (dose: 250.0 mg/kg/injection, schedule: Q01DX010 (ip), vehicle: saline): 95 % of control

O=C(Nc1ccc(NC(=O)Nc2cccc(C3=NCCN3)c2)cc1)Nc1cccc(C2=NCCN2)c1
T/C (dose: 120.0 mg/kg/injection, schedule: Q01DX010 (ip), vehicle: saline): 162 % of control and 183 % of control
T/C (dose: 480.0 mg/kg/injection, schedule: Q01DX010 (ip), vehicle: saline): 100 % of control

COC(=O)C[C@](O)(CCCC(C)(C)O)C(=O)O[C@@H]1C(OC)=C[C@]23CCCN2CCc2cc4c(cc2[C@H]13)OCO4
T/C (dose: 0.72 mg/kg/injection, schedule: Q04DX003 (ip), vehicle: acid diluted with saline): 100 % of control
T/C (dose: 1.2 mg/kg/injection, schedule: Q04DX003 (ip), vehicle: acid diluted with saline): 100 % of control
T/C (dose: 2.0 mg/kg/injection, schedule: Q04DX003 (ip), vehicle: acid diluted with saline): 98 % of control
T/C (dose: 3.33 mg/kg/injection, schedule: Q04DX003 (ip), vehicle: acid diluted with saline): 97 % of control

CN=C(NC)c1ccc(NC(=O)Nc2ccc(NC(=O)Nc3ccc(C(=NC)NC)cc3)cc2)cc1
T/C (dose: 13.3 mg/kg/injection, schedule: Q01DX010 (ip), vehicle: saline): 150 % of control
T/C [10]: 100 % of control
T/C (dose: 30.0 mg/kg/injection, schedule: Q01DX010 (ip), vehicle: saline): 504 % of control

Oc1cc(CN(CCCl)CCCl)c(O)cc1CN(CCCl)CCCl
T/C (dose: 0.31 mg/kg/injection, schedule: Q01DX010 (ip), vehicle: saline): 112 % of control
T/C (dose: 2.5 mg/kg/injection, schedule: Q01DX010 (ip), vehicle: saline): 117 % of control
T/C [9]: 100 % of control

O[C@H](CN1CC1)[C@@H](O)CN1CC1
T/C (dose: 0.13 mg/kg/injection, schedule: Q01DX010 (ip), vehicle: saline): 180 % of control and 200 % of control
T/C (dose: 0.25 mg/kg/injection, schedule: Q01DX010 (ip), vehicle: saline): 150 % of control and 241 % of control

CC(=O)O[C@]1(C(C)=O)CC[C@H]2[C@@H]3C[C@H](C)C4=CC(=O)C=C[C@]4(C)[C@@]3(F)[C@@H](O)C[C@@]21C
T/C [11]: 103 % of control
T/C [12]: 116 % of control
T/C [13]: 110 % of control
T/C [14]: 113 % of control

CN=C(NC)c1ccc(NC(=O)c2ccc(C(=O)Nc3ccc(C(=NC)NC)cc3)c(Cl)c2)cc1
T/C [2]: 117 % of control
T/C [3]: 95 % of control

COc1cccc2c1C(=O)c1c(O)c3c(c(O)c1C2=O)C[C@@](O)(C(C)=O)C[C@@H]3OC1CC(N)C(O)C(C)O1 (stereo partly specified)
T/C (dose: 3.6 mg/kg/injection, schedule: Q04DX003 (ip), vehicle: water): 110 % of control
T/C (dose: 6.0 mg/kg/injection, schedule: Q04DX003 (ip), vehicle: water): 104 % of control
T/C (dose: 8.0 mg/kg/injection, schedule: Q04DX003 (ip), vehicle: water): 114 % of control

O=C(Nc1ccc(NC2=NCCN2)cc1)c1ccc(C(=O)Nc2ccc(NC3=NCCN3)cc2)cc1
T/C (dose: 2.0 mg/kg/injection, schedule: Q01DX010 (ip), vehicle: saline): 121 % of control
T/C (dose: 4.0 mg/kg/injection, schedule: Q01DX010 (ip), vehicle: saline): 192 % of control
T/C [15]: 171 % of control and 211 % of control

CS(=O)(=O)OCCN(CCOS(C)(=O)=O)c1ccc(N=O)cc1
T/C (dose: 0.5 mg/kg/injection, schedule: Q01DX010 (ip), vehicle: saline): 150 % of control
T/C (dose: 1.0 mg/kg/injection, schedule: Q01DX010 (ip), vehicle: saline): 150 % of control

CC/C(=C(/CC)c1ccc(O)cc1)c1ccc(O)cc1
T/C [11]: 88 % of control and 111 % of control
T/C [12]: 103 % of control
T/C [13]: 100 % of control
T/C [14]: 103 % of control

C[n+]1ccc(NC(=O)c2ccc(NC(=O)c3cccc(C(=O)Nc4ccc(C(=O)Nc5cc[n+](C)cc5)cc4)c3)cc2)cc1
T/C [9]: 100 % of control
T/C (dose: 10.0 mg/kg/injection, schedule: Q01DX010 (ip), vehicle: saline): 107 % of control
T/C [4]: 166 % of control

CC1CN=C(c2ccc(NC(=O)c3cccc(C(=O)Nc4ccc(C5=NCC(C)N5)cc4)c3)cc2)N1 (stereo unspecified)
T/C [8]: 104 % of control
T/C [2]: 117 % of control
T/C [3]: 104 % of control
T/C [4]: 108 % of control

N=C(N)c1ccc(Nc2ccc(C(=N)N)cc2)cc1
T/C [5]: 106 % of control
T/C [6]: 92 % of control and 106 % of control
T/C [7]: 89 % of control and 106 % of control
T/C [8]: 92 % of control and 113 % of control

CCCNC(=NC)c1ccc(NC(=O)c2ccc(C(=O)Nc3ccc(C(=NC)NCCC)cc3)cc2)cc1
T/C (dose: 5.2 mg/kg/injection, schedule: Q01DX010 (ip), vehicle: saline): 113 % of control
T/C [15]: 113 % of control
T/C [8]: 118 % of control
T/C [2]: 100 % of control

O=c1cnn(C2OC(CO)C(O)C2O)c(=O)[nH]1 (stereo unspecified)
T/C (dose: 100.0 mg/kg/injection, schedule: Q01DX010 (ip), vehicle: saline): 107 % of control
T/C (dose: 200.0 mg/kg/injection, schedule: Q01DX010 (ip), vehicle: saline): 114 % of control
T/C (dose: 400.0 mg/kg/injection, schedule: Q01DX010 (ip), vehicle: saline): 115 % of control and 121 % of control
T/C (dose: 800.0 mg/kg/injection, schedule: Q01DX010 (ip), vehicle: saline): 123 % of control
T/C (dose: 1600.0 mg/kg/injection, schedule: Q01DX010 (ip), vehicle: saline): 88 % of control

Reference: PubChem BioAssay AID336 (DTP/NCI, 2004)
